Assay [1] relates to bone metastasis. In words: Prophylactic treatment for bone metastasis in subject with triple negative breast cancer and increased c-MAF. The assay is classed as in vivo. The note with it: 120 mg SC once monthly for 6 months, then every 3 months for 4 and a half years, with oral calcium and vitamin D. As for the experimental part:
A tumor tissue sample is obtained from a subject diagnosed as having triple negative breast cancer. The sample is sectioned into thin slices of tissue and embedded in paraffin. Each paraffin section is mounted on a slide. The slides are incubated with anti-MAF antibody. For visualization and detection of antibodies bound to MAF, antibodies conjugated with fluorescent dye are used. The slides are visualized by providing excitation beams to the fluorescent dyes. Images of fluorescent signals are taken by fluorescent microscopes. The relative expression level of c-MAF in the tumor sample is obtained by comparing the fluorescent signal in the tumor sample to that of a reference sample. The intensity in the tumor sample is correlated with the intensity in the reference sample, wherein a higher intensity in the tumor sample compared to the reference sample correlates with an increased risk of the subject having primary breast cancer metastasis to the bone. Alternatively, 16q22-24 locus,16q23 locus or c-MAF gene amplification or translocation determined using an in situ hybridization technique or similar
Based on the prognosis of increased risk of bone metastasis, the subject is administered the anti-RANKL antibody Denosumab as a prophylactic treatment for bone metastasis. 120 mg of Denosumab is administered to the subject subcutaneously (SC) once monthly for 6 months. […]

Assay [2] has as its system c-MAF expressing MCF7 breast cancer cells. Kind of assay: Bone metastasis of c-MAF expressing MCF7 cells injected intracardiacally, with or without PTHLH-AN. The format is in vivo, mouse. As to conditions: 6 μg twice a day intraperitoneally in PBS, 47 days, vs PBS control (FIG. 11d,e). The procedure:
d) Parental, c-MAF short and long-expressing parental cells labeled with the luciferase gene were injected into the left ventricle of mouse and bone colonization was analyzed by in vivo bioluminiscent imaging. The mice injected with c-MAF short and long expressing parental cells were treated or not with PTHLH antagonist peptide (7-34) inoculated intraperitoneally (6 μg/animal) twice a day during the course of the experiment. The plot represents the total photon flux ex vivo at the experiment end point, which reflects the number of metastatic cells per lesion (left panel). Osteolytic bone metastasis lesions are depicted (right panel)
e) X-RAY (CT-scan) images of representative osteolytic lesions per group. […] TRAP positive osteoclast cells (Black) along bone tumor interface from lesions were counted in at least four different fields from each independent mouse and plotted with SD values. […] The statistical differences between groups are evaluated by means of the two-tailed wilcoxon test. […]
To test whether PTHLH mediates c-MAF driven bone metastasis in breast cancer cells, we injected c-MAF expressing MCF7 breast cancer cells intracardiacally and evaluated its capacity to establish and grow bone metastasis in the presence or absence of PTHLH-AN during the span of 47 days. […]

Assay [3] has as its system osteoclast differentiation of mouse bone marrow-derived precursor cells. Kind of assay: Osteoclast differentiation from bone marrow cells with conditioned medium, TRAP technique. The note with it: co-incubation with PTHLH antagonist peptide (7-34), 5 μg/ml (FIG. 11c). The format is cell-based. As for the experimental part:
b) Assay of osteoclast differentiation from mouse bone marrow-derived precursor cells using conditioned medium originated from MCF7 parental cells or cells over-expressing any of the c-MAF isoforms (short—short isoform and long—long isoform). The number of osteoclasts is measured by means of the TRAP technique (>3 Multinucleated cells).
c) Bone marrow cells treated with 50:50 osteoclast differentiation and conditioned media (CM) parental, c-MAF short and Long-expressing parental cells and BoM2 bone metastatic MCF7 cell derivatives or without CM but with human PTHLH antagonist peptide (7-34)(5 μg/ml), The number of osteoclasts is measured by means of the TRAP technique (Ostoclasts are >3 Multinucleated cells, Highlighted by white arrows) and normalized to control.
Without a direct activity of c-MAF in providing bone metastasis functions to breast cancer cells, c-MAF may instead transcriptionally control the activity of genes promoting homing and bone remodeling capabilities to colonize the bone. PTHLH expression was under the control of c-MAF. An observation confirmed by qPCR analysis (FIG. 11a). Further, patient breast cancer metastasis (GSE14020) growing in the bone retained c-MAF expression compared to metastasis elsewhere (FIG. 11b). Moreover, 77% of metastasis expressing MAF and PTHLH above the average were bone metastasis (FIG. 11b). […]

Consider “Denosumab: fully human monoclonal antibody which binds to RANKL and prevents its activation, CAS number 615258-40-7”, for which the “evidence of bone metastasis after 5 years” value in assay [1] was “free of any evidence of bone-metastasis”.
As to “PTHLH-AN: human PTHLH antagonist peptide (7-34Aa)”, in assay [2], the “extent of the hind limb osteolytic lesions” value is recorded as “dramatic reduction” and the “number of osteoclast (TRAP+ cells) at the metastatic lesion perimeter” value is listed as “reduction in the number of osteoclast”. Besides, the “induction of osteoclast differentiation in vitro by conditioned media from cells expressing c-MAF” value in assay [3] is listed as “prevented”.

The values are drawn from patent US10866241B2, “Method for the prognosis and treatment of cancer metastasis” (Fundació Institut de Recerca Biomèdica (IRB Barcelona), priority 2012, dated 2020).
